Results reported in patent US7786117B2, “Therapeutic substituted thiazolidinones, oxazolidinones, and related compounds” (Allergan, Inc., priority 2008, dated 2010).

Tested on: lashes and adjacent hairs of the eyelids
Experiment: Observation of lash and hair growth in glaucoma patients treated with bimatoprost in only one eye
Type: in vivo, human
From the text: In the course of treating patients having glaucoma, treatment may only be appropriate in one eye. […] The lash appearance on the lids of the treated eyes would have appeared quite attractive if it represented a bilateral phenomenon. As a result of its asymmetric nature, the long lashes on one side could be construed as disturbing from a cosmetic standpoint. A systemic examination was preformed as a result of the asymmetric phenomenon. It soon became apparent that this altered appearance was not an isolated finding.
The changes in the lashes were apparent on gross inspection in several patients once attention was focused on the issue. In those with light colored hair and lashes, the differences were only seen easily with the aid of the high magnification and lighting capabilities of the slit lamp biomicroscope. In the course of glaucoma follow-up examination, attention is generally immediately focused on the eye itself. As a result of the high power magnification needed only one eye is seen at a time and the eye is seen at a high enough power that the lashes are not in focus. At these higher powers, any lash asymmetry between the two eyes is not likely to be noticed except by careful systematic comparison of the lashes and adjacent hairs of the eyelids of the two eyes.
Observed parameters leading to the conclusion that more robust hair growth occurred in the treatment area following administration of the prostaglandin analogue were multiple. They included increased length of lashed, increased number of lashes along the normal lash line, increased thickness and luster of lashes, increased auxiliary lash-like terminal hair in transitional areas adjacent to areas of normal lash growth, increased auxiliary lash-like terminal hairs at the medial and lateral canthal area, increased pigmentation of the lashes, increased numbers, increased length, as well as increased luster, and thickness of fine hair on the skin of the adjacent lid, and finally, increased perpendicular angulation of lashes and lash-like terminal hairs.

CCNC(=O)CCC/C=C\C[C@@H]1[C@@H](/C=C/[C@@H](O)CCc2ccccc2)[C@H](O)C[C@@H]1O [bimatoprost]
lash appearance in the treated eye versus the non-treated eye (a glaucoma patient treated in one eye only): longer, thicker, and fuller in the treated eye than in the non-treated eye | differences in the lashes and adjacent hairs of the treated side (all patients taking the drug on a unilateral basis for longer than 6 months): Definite differences could be identified to varying degrees | hair growth in treated versus control areas, multiple parameters of hair appearance (many subjects, length, number, thickness, luster, pigmentation, angulation of lashes): hair growth is stimulated
